Measurements published in patent publication US20100266604A1, “USE OF TAM RECEPTOR INHIBITORS AS IMMUNOENHANCERS AND TAM ACTIVATORS AS IMMUNOSUPPRESSORS” (The Salk Institute for Biological Studies, priority 2007, published 2010).
Blank lines part the entries; values can stand above or below the molecule they belong to.

Tests used:
[1] = molecular target: TAM receptors (on mouse dendritic cells); assay: cell-based or functional assay
[2] = tested on: SOCS1 and SOCS3 mRNA in DCs; assay: Q-PCR of SOCS1 and SOCS3 mRNA in DCs; type: cell-based, mouse; details: for SOCS1 mRNA induction: 300 U/ml IFNα
Method: (§1) Splenic DCs (1×10^6 cells/ml) or BM-DCs (5×10^6 cells/ml) were cultured in serum-free medium and treated with the indicated concentrations of murine recombinant Gas6, murine recombinant Protein S, the TLR ligands indicated above, recombinant mouse IFNα (PBL Biomedical laboratories), recombinant mouse Axl-FC chimera (R&D), cyclohexamide (Sigma) or Actinomycin D (Sigma). Whole cell lysates and RNA extraction were performed as indicated below.
(§2) After stimulation, cells were harvested, and total RNA was isolated using the RNeasy mini kit (Qiagen). Reverse transcription was performed according to manufacturer instructions with RT Superscript III (Invitrogen). PCR reactions were performed on an ABI Prism 7700 Sequence Detection System using SYBRGreen PCR master mix (Applied Biosystems). Each reaction was normalized against the expression of β-actin or GAPDH. Analyses of dissociation curves were performed with SDS software (Applied Biosystems) to ensure the absence of nonspecific amplification. Q-PCR primers used herein are listed below.

[3] = tested on: IRF-7 and IFI-204 mRNA in DCs; assay: Q-PCR of IRF-7 and IFI-204 mRNA in DCs; type: cell-based, mouse; details: splenic DCs, 300 U/ml IFNα
Method: as §1, §2

[4] = tested on: Axl mRNA and protein in DCs; assay: Axl expression in DCs (Q-PCR, FACS, Western blot); type: cell-based, mouse; details: for Axl expression by Western blot: WT DCs
Method: as §1
DCs were washed in PBS and harvested in NuPage LDS sample buffer (Invitrogen) with 100 μM DTT. Whole cell lysates were resolved by electrophoresis, proteins were transferred to a PVDF membrane (Immobilon P, Millipore), blocked in 3% BSA/TBS-Tween-20 and probed with the indicated antibodies. For fluorescent western blotting with the Odyssey system, proteins were transferred to an Immobilon-FL PVDF membrane (Millipore) and incubated with two primary antibodies in 0.1% casein/PBS-Tween-20. Following incubation with fluorescence-labeled secondary antibodies, membranes were scanned with the Odyssey imaging system (LI-COR).
as §2
Cells were incubated for 15 minutes with a rat mAb to CD16/32 to block Fc receptors and then with primary antibodies for 20 minutes on ice. The following mAbs against murine molecules were used: allophycocyanin- and phycoerythrin-conjugated anti-CD11c, FITC-conjugated anti-MHC class I (H-2K^b) and anti-MHC class II (I-A^b), PerCP-Cy5.5-conjugated anti-CD3, anti-CD19 and anti-NK1.1 (all from BD Pharmingen). For Axl staining, cells were processed as described, fixed with 10% paraformaldehyde, permeabilized with Saponin (0.1%, Sigma), incubated with Axl (M-20) antibody for 30 minutes and then with anti-goat Cy5 antibody (Jackson ImmunoResearch). Fluorescent cells were acquired with a FacsSort flow cytometer (Becton Dickinson) and analyzed with FlowJo (Tree Star) software.

[5] = tested on: TLR-induced cytokine production in DCs; assay: DC activation assay: TLR-induced cytokine production (ELISA / ISRE luciferase reporter); type: cell-based, mouse; details: IFNα, 10 nM CpG, 15 hours, 3 nM ProS (FIG. 8A)
Method: Splenic DC or BM-DCs (1×10^6 cells/ml) were cultured overnight in serum-free medium (StemSpan, StemCell Technologies Inc.) in the presence of the indicated concentrations of LPS from Salmonella minnesota R595 Re (Alexis), CpG-ODN 1668 (TCCATGACGTTCCGATGCT; SEQ ID NO: 19; Integrated DNA Technologies) or Poly I:C (InvivoGen) alone or in the presence of murine recombinant Gas6 (R&D Systems) or murine recombinant Protein S (produced as described in Prasad et al., (2006) Mol Cell Neurosci 33:96-108). Cytokine production was quantified in cell-free supernatants by ELISA (ebioscience for IL-12, IL-6 and TNFα and PBL-biomedical for IFNα) or by a luciferase assay using a cell line containing an ISRE-responsive element luciferase reporter construct for Type I IFN (Jiang et al., (2005) Nat Immunol 6:565-570).

[6] = molecular target: T1, Axl (mouse, endogenous in bone marrow-derived dendritic cells) (mouse, UniProt Q00993 19-888); assay: co-immunoprecipitation from BM-DC whole cell lysates, untreated (-) or treated 20 min with 50 nM Gas6 (+); IP with antibody to the IFN receptor R2 chain, immunoblot for Axl
T1 construct: whole, on cells; Endogenous protein co-immunoprecipitated from Triton X-100 lysates of mouse BM-DCs, not a recombinant construct; also called TAM receptor
T1 sequence (looked up): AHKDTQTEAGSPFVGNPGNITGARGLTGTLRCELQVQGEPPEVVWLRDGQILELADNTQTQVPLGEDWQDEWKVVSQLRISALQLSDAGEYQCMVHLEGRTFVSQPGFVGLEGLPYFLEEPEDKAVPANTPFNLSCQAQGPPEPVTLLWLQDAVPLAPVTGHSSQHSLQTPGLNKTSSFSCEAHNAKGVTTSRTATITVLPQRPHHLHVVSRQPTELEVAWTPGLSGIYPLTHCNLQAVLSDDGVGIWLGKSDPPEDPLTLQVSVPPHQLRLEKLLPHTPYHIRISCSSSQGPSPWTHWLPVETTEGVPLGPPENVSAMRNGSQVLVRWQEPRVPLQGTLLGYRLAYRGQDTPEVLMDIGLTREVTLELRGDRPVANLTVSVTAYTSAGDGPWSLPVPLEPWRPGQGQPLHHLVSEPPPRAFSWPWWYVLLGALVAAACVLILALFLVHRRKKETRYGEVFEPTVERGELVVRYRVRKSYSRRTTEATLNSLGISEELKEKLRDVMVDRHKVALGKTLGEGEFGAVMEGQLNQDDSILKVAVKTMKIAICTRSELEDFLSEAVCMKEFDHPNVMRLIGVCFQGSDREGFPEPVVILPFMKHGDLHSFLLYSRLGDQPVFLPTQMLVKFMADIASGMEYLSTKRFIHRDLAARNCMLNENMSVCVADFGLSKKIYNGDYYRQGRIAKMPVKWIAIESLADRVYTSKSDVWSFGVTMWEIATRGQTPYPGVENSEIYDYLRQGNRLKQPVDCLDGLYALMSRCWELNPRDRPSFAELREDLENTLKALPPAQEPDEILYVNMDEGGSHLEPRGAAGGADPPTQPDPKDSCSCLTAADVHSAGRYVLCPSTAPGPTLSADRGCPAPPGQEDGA

STAT1 = molecular target: T2, STAT1 (mouse, UniProt P42225); assay: co-immunoprecipitation from BM-DC whole cell lysates, untreated (-) or treated 20 min with 50 nM Gas6 (+); IP with antibody to the IFN receptor R1 chain, immunoblot for STAT1
T2 construct: endogenous full-length protein in the cell lysate; also called total STAT1
T2 sequence (transcription factor, looked up): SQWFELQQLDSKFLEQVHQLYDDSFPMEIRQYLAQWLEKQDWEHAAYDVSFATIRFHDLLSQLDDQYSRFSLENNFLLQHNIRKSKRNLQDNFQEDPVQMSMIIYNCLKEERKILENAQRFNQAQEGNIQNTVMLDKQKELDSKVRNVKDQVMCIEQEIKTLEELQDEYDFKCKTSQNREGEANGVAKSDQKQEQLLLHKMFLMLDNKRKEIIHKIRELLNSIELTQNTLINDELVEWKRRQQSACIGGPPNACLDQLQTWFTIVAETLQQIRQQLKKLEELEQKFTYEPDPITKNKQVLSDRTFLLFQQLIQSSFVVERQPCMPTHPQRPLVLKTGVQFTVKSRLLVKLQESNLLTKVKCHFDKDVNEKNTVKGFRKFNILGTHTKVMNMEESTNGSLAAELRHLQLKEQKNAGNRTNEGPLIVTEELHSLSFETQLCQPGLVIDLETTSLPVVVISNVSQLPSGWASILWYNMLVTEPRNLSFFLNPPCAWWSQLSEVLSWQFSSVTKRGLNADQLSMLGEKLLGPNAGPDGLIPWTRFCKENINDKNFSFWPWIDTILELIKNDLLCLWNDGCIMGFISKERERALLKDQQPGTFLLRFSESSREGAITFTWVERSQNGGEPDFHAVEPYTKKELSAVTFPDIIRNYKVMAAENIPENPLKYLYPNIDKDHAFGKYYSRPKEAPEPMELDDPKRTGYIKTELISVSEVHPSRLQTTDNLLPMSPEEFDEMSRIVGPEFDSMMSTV

Molecule: IFNα
SOCS1 mRNA expressed by TAM TKO DCs relative to WT DCs ([2]; IFN-treated, integrated over the 6-hour time course): ~24% | SOCS1 mRNA induction ([2]; TAM TKO splenic DCs): significantly blunted | SOCS1 mRNA induction ([2]; WT splenic DCs, 2 hours, sustained up to 6 hours): robust induction | IFNα-induced IRF-7 and IFI-204 mRNA levels, WT versus TAM TKO DCs [3]: indistinguishable | Axl induction ([4]; STAT1−/− DCs): lost | Axl expression by Western blot [4]: substantial up-regulation

Molecule: poly I:C
Axl induction ([4]; Ifnar−/− DCs): lost | Axl induction ([4]; STAT1−/− DCs): lost | Axl expression by Western blot [4]: substantial up-regulation

B1: IFNAR2 (receptor, mouse, UniProt O35664 22-513, looked up)
receptor chain: SLETITPSAFDGYPDEPCTINITIRNSRLILSWELENKSGPPANYTLWYTVMSKDENLTKVKNCSDTTKSSCDVTDKWLEGMESYVVAIVIVHRGDLTVCRCSDYIVPANAPLEPPEFEIVGFTDHINVTMEFPPVTSKIIQEKMKTTPFVIKEQIGDSVRKKHEPKVNNVTGNFTFVLRDLLPKTNYCVSLYFDDDPAIKSPLKCIVLQPGQESGLSESAIVGITTSCLVVMVFVSTIVMLKRIGYICLKDNLPNVLNFRHFLTWIIPERSPSEAIDRLEIIPTNKKKRLWNYDYEDGSDSDEEVPTASVTGYTMHGLTGKPLQQTSDTSASPEDPLHEEDSGAEESDEAGAGAGAEPELPTEAGAGPSEDPTGPYERRKSVLEDSFPREDNSSMDEPGDNIIFNVNLNSVFLRVLHDEDASETLSLEEDTILLDEGPQRTESDLRIAGGDRTQPPLPSLPSQDLWTEDGSSEKSDTSDSDADVGDGYIMR
notes: endogenous full-length protein in the cell lysate; also called R2 chain of the type I IFN receptor; IFN receptor R2 chain
binding result [6]: no binding

Other lines, results leading:

SOCS1 mRNA expression in BM-DCs (Q-PCR) after addition of 50 nM Gas6 [1]: 10 fold | SOCS3 mRNA expression in BM-DCs (Q-PCR) after addition of 50 nM Gas6 [1]: 10 fold
Molecule: murine recombinant Gas6 (R&D Systems) (from UniProt Q61592 28-674) (ligand)

inhibiting TLR-induced cytokine production in WT DCs, compared with Gas6 [5]: equally effective
Molecule: ProS: murine recombinant Protein S, the second agonist for TAM receptors

binding result (STAT1): no binding
B2: R1 chain of the type I IFN receptor (mouse, endogenous in BM-DCs) (receptor, UniProt P33896 27-590, looked up)
chain: ENLKPPENIDVYIIDDNYTLKWSSHGESMGSVTFSAEYRTKDEAKWLKVPECQHTTTTKCEFSLLDTNVYIKTQFRVRAEEGNSTSSWNEVDPFIPFYTAHMSPPEVRLEAEDKAILVHISPPGQDGNMWALEKPSFSYTIRIWQKSSSDKKTINSTYYVEKIPELLPETTYCLEVKAIHPSLKKHSNYSTVQCISTTVANKMPVPGNLQVDAQGKSYVLKWDYIASADVLFRAQWLPGYSKSSSGSRSDKWKPIPTCANVQTTHCVFSQDTVYTGTFFLHVQASEGNHTSFWSEEKFIDSQKHILPPPPVITVTAMSDTLLVYVNCQDSTCDGLNYEIIFWENTSNTKISMEKDGPEFTLKNLQPLTVYCVQARVLFRALLNKTSNFSEKLCEKTRPGSFSTIWIITGLGVVFFSVMVLYALRSVWKYLCHVCFPPLKPPRSIDEFFSEPPSKNLVLLTAEEHTERCFIIENTDTVAVEVKHAPEEDLRKYSSQTSQDSGNYSNEEEESVGTESGQAVLSKAPCGGPCSVPSPPGTLEDGTCFLGNEKYLQSPALRTEPALLC
notes: whole, on cells; Endogenous protein immunoprecipitated from mouse BM-DC lysates; also called IFNAR1; IFN receptor R1 chain
